Series [1] is described as follows: Oral bioavailability in rat after oral administration of 10 mg/kg dose. The series is classed as ADME, organism-based. As to conditions: in vivo.
Series [2] can be described thus: Elimination half life in rat after i.v. dose of 1 mg/kg. The series is classed as ADME, organism-based. More on the design: dose 1 mg/kg, route intravenous. Conditions: in vivo, iv.
Series [3] concerns the target T1, Cytochrome P450 3A4 (Homo sapiens, UniProt P08684).
Description: Inhibition of recombinant human Cytochrome P450 3A4 with BFC [7-benzyloxy-4-trifluoromethylcoumarin] after 45 minutes
In series [4] the target is T1, Cytochrome P450 3A4. The source holds these as a separate data set.
Description: Inhibition of recombinant human Cytochrome P450 3A4 with BFC [7-benzyloxy-4-trifluoromethylcoumarin] after 15 minutes
Series [5] can be described thus: Vd compound was determined in rat after i.v. dose of 1 mg/kg. Conditions: in vivo, iv. More on the design: dose 1 mg/kg, route intravenous. The series is classed as ADME, organism-based.
For series [6], the target named is T1, Cytochrome P450 3A4. The source holds these as a separate data set.
Description: Inhibition of recombinant human Cytochrome P450 3A4 with BFC [7-benzyloxy-4-trifluoromethylcoumarin] after 5 minutes
Series [7] has as its target Potassium voltage-gated channel subfamily KQT member 2 (Mus musculus) (UniProt Q9Z351). Briefly: Effective concentration against Potassium voltage gated channel KQT-like subfamily, member 2 (mouse) expressed in HEK 293 cells.
Series [8] addresses Potassium voltage-gated channel subfamily KQT member 2 (Homo sapiens, UniProt O43526). In words: Effective concentration against Potassium voltage gated channel, KQT-like subfamily, member 2 expressed in SH-SY5Y human neuroblastoma cells. The series is classed as cell-based.
Series [9] has as its target T1, Cytochrome P450 3A4. This is another data set of the same source.
Description: Inhibition of recombinant human Cytochrome P450 3A4 using BFC [7-benzyloxy-4-trifluoromethylcoumarin] after 30 minutes
Series [10] can be described thus: Plasma clearance in rat after i.v. dose of 1 mg/kg. The series is classed as ADME, organism-based. More on the design: dose 1 mg/kg, route intravenous. As to conditions: iv.
Series [11] addresses Cytochrome P450 2C19 (Homo sapiens) (UniProt P33261). In words: Inhibition of recombinant human Cytochrome P450 2C19.
The target in series [12] is Cytochrome P450 2C9 (Homo sapiens, UniProt P11712). In words: Inhibition of recombinant human Cytochrome P450 2C9. The series is classed as ADME.
For series [13], the target named is T1, Cytochrome P450 3A4. The series is classed as ADME.
Series [14] has as its target Cytochrome P450 2D6 (Homo sapiens, UniProt P10635). In words: Inhibition of recombinant human Cytochrome P450 2D6. The series is classed as ADME.
Series [15] addresses T2, Cytochrome P450 1A2 (Homo sapiens, UniProt P05177).
T2 sequence (P05177 whole entry): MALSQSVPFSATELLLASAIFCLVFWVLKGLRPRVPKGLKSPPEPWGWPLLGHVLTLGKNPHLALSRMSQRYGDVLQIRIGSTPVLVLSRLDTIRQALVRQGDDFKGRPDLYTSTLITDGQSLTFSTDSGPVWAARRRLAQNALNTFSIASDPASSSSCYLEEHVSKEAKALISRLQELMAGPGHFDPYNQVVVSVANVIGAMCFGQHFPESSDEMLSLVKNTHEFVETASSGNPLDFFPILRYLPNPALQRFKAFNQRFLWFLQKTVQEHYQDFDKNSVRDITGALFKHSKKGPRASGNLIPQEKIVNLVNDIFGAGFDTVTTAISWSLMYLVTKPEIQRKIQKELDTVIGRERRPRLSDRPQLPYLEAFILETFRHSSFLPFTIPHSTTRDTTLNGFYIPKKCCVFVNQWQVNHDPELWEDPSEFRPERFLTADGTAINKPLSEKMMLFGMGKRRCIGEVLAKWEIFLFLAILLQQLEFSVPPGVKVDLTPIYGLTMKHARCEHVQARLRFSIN
In words: Inhibition of recombinant human Cytochrome P450 1A2. The series is classed as ADME.

In series [16] the target is T1, Cytochrome P450 3A4. Briefly: Inhibition of recombinant human Cytochrome P450 3A4 with Benzoylresorufin. The series is classed as ADME.

T1 sequence (P08684 whole entry): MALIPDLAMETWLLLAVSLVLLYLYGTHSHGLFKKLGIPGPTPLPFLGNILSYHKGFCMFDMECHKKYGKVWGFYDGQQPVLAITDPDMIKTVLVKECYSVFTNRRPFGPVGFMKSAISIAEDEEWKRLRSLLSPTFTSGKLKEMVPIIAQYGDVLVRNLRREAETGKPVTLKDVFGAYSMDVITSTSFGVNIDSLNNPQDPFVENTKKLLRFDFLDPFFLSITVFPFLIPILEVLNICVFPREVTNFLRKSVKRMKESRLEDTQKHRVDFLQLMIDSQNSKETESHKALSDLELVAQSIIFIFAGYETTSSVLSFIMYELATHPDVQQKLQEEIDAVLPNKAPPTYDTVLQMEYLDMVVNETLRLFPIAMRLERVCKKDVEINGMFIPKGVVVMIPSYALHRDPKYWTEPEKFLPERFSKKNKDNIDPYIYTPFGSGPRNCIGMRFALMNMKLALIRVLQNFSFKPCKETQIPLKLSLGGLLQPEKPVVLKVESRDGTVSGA
Potassium voltage-gated channel subfamily KQT member 2, sequence (O43526 whole entry): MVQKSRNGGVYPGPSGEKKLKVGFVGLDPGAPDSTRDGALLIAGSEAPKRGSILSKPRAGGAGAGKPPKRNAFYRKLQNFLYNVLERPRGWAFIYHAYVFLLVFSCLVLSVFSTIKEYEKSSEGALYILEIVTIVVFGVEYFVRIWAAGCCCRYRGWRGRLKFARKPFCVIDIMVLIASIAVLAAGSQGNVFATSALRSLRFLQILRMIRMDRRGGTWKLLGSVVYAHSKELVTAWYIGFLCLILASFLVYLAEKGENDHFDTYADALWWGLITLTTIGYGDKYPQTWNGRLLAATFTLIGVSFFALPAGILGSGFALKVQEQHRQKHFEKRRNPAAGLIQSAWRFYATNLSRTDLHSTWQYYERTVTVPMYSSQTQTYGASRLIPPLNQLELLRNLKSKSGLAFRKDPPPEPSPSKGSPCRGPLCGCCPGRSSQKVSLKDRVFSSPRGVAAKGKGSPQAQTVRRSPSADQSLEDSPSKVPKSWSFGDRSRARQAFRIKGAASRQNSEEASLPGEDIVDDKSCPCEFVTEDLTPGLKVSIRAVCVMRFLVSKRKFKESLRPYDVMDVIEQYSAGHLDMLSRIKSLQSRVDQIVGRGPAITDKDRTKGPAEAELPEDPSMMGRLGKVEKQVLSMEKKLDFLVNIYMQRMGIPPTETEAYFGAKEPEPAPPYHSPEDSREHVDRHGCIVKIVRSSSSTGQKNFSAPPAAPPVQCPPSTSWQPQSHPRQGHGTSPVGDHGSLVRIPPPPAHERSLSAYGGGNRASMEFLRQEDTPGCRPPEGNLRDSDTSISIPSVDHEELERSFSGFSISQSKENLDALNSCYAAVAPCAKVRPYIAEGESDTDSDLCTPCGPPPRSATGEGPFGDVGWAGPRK
Potassium voltage-gated channel subfamily KQT member 2 (Mus musculus), sequence (Q9Z351 whole entry, looked up): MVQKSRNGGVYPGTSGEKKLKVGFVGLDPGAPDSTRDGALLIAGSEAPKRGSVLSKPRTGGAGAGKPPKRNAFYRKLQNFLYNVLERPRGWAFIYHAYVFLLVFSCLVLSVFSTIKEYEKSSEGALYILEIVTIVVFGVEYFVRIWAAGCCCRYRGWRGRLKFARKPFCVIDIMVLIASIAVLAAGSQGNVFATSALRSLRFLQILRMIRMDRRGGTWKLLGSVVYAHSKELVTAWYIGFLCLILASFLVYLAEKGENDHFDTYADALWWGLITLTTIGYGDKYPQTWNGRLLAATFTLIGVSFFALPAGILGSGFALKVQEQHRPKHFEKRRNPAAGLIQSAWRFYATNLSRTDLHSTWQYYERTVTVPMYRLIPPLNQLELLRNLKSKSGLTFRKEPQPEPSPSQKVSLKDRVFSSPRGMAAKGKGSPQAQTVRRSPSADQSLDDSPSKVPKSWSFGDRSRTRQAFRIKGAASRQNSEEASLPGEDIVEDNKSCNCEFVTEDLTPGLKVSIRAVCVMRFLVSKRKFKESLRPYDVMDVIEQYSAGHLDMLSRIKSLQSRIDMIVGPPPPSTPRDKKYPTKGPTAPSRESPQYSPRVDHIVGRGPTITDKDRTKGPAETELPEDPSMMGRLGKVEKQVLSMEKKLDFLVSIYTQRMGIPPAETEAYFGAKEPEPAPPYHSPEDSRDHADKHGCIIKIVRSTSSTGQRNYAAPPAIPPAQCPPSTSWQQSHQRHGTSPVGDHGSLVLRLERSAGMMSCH
Cytochrome P450 2C9, sequence (P11712 whole entry): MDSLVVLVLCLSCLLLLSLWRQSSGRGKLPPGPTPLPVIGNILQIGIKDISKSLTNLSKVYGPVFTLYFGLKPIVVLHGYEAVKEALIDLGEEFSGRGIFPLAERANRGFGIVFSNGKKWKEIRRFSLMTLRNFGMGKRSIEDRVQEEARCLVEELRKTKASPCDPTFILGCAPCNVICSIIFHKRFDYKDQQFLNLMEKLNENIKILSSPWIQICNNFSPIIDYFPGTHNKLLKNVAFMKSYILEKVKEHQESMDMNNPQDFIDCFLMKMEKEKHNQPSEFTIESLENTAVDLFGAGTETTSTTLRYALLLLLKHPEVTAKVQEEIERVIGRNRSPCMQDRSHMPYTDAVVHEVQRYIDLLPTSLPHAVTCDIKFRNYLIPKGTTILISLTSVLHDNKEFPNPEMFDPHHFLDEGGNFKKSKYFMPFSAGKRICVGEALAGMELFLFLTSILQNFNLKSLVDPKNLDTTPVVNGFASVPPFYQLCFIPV
Cytochrome P450 2D6, sequence (P10635 whole entry): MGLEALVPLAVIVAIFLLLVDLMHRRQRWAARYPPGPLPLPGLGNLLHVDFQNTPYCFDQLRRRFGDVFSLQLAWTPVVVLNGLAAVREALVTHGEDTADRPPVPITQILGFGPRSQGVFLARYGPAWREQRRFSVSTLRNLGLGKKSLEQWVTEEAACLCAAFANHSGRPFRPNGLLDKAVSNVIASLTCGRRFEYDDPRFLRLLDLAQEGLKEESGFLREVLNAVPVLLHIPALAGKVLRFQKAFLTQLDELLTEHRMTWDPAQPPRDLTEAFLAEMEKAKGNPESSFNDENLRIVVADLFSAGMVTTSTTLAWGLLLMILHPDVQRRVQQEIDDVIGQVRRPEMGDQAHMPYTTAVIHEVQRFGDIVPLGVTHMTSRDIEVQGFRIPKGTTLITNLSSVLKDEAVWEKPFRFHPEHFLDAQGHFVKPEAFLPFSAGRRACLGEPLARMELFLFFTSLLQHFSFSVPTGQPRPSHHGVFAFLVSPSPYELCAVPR
Cytochrome P450 2C19 (Homo sapiens), sequence (P33261 whole entry, looked up): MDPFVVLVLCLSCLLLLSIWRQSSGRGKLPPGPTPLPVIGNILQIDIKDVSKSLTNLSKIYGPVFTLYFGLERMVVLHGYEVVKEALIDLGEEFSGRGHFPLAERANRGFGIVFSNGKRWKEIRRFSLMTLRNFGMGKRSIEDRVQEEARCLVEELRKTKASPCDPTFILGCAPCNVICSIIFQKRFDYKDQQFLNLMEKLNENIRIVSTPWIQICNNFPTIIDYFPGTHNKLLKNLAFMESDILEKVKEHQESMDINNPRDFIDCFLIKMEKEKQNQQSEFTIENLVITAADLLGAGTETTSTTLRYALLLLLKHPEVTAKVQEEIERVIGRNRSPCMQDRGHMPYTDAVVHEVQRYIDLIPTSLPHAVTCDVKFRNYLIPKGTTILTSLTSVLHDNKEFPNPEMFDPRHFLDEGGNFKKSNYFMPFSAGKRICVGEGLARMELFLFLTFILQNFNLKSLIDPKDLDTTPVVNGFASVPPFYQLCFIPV

For `C[C@H](NC(=O)/C=C/c1ccc(F)cc1)c1ccc(F)c(N2CCOCC2)c1`, the bioavailability (in general, dose-corrected exposure relative to a reference, in per cent) in series [1] amounted to 84%. Moreover, the half-life (as a rule, how long it takes for the measured level to halve) in series [2] was 3.5 h. Also, the IC50 (in general, the point on the concentration scale where inhibition reaches its midpoint) in series [3] came to 19 µM; in [4], 21 µM; in series [6] it was 18 µM; in series [9], 19 µM. The Vd (as a rule, a proportionality between amount in the body and measured concentration, not a real space) in [5] turned out to be 3.3 L/kg. Also, the EC50 (as a rule, the concentration giving half of the maximal effect) stood at 1.2 µM in series [7] and 1.55 µM in series [8]. Moreover, the clearance (in general, the rate of elimination divided by the concentration) in series [10] worked out at 17.8 mL/min/kg.
In the case of `C[C@H](NC(=O)/C=C/c1ccccc1)c1cccc(N2CCOCC2)c1`, the IC50 is 13 µM in series [11]; 5.3 µM in [12]; 22 µM in [3]; 27 µM in series [13]; 62 µM in series [4]; above 100 µM in [14]. For the same compound, the IC50 in [6] amounted to 96 µM; in [15] it was 78 µM; in series [9] it was 33 µM; in series [16] it was 76 µM. The EC50 in [7] turned out to be 3 µM; in [8] it was 0.69 µM.

These data come from ChEMBL document CHEMBL1145064, “Fluorine substitution can block CYP3A4 metabolism-dependent inhibition: identification of (S)-N-[1-(4-fluoro-3- morpholin-4-ylphenyl)ethyl]-3- (4-fluorophenyl)acrylamide as an orally bioavailable KCNQ2 opener devoid of CYP3A4 metabolism-dependent inhibition” (J Med Chem, 2003).
